Results published in patent US12195482B1 (Arcus Biosciences, Inc., priority 2022, dated 2025).

Experiments:
Axl = target: T1, Axl (Homo sapiens, UniProt P30530); test: Biochemical potency, HTRF KinEASE-TK kinase assay; parameters: purchased Invitrogen; details: 5 nM AXL, 700 μM ATP
T1 sequence (P30530 26-894): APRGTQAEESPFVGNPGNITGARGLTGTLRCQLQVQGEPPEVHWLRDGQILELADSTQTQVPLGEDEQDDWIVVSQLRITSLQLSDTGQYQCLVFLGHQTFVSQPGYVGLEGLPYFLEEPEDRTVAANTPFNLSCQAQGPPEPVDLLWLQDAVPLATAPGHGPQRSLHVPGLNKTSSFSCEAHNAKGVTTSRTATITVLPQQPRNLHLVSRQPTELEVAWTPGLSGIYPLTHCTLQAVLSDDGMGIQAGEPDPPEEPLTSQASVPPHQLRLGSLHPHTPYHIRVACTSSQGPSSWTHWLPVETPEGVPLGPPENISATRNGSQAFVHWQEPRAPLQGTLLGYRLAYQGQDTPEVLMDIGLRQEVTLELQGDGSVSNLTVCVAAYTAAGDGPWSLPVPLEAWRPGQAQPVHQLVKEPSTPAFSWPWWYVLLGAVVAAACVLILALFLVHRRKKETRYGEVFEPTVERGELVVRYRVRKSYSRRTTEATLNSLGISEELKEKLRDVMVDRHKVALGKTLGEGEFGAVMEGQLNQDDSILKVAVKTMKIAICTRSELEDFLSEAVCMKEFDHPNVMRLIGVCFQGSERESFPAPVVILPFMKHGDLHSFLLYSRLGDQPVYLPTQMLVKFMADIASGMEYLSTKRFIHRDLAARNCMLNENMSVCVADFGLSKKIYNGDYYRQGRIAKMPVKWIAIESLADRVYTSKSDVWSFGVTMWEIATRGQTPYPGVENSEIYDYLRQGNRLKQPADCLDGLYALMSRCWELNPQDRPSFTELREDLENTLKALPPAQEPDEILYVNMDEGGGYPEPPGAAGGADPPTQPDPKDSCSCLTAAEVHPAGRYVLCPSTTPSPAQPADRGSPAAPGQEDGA
Protocol: Measurement of Biochemical Compound Potency of Axl Inhibitors
Purified recombinant human AXL, TYRO3 and MER proteins were purchased from Invitrogen™. 10 nM AXL, 2 nM TYRO3 or MER were incubated with varying concentrations of compounds in 50 mM HEPES, pH 7.4, 10 mM MgCl2, 0.01% BSA, 1 mM DTT and 2% DMSO in a total volume of 20 μl in a 384-well microplate (Corning™ #3640) at RT for 1 h. The AXL, TYRO3 and MER enzymatic reaction was initiated by transferring 10 μl of enzyme and compound mixture into 10 μl of 1.6 μM TK Substrate-biotin (HTRF® KinEASE-TK kit, Cisbio) and 1400 μM ATP pre-incubated in 50 mM HEPES, pH 7.4, 10 mM MgCl2, 0.01% BSA, 1 mM DTT in a 384-well microplate (Corning™ #3640) at RT, giving the final reaction conditions: 5 nM AXL, 1 nM TYRO3 or MER, 800 nM TK Substrate-biotin and 700 μM ATP in 50 mM HEPES, pH 7.4, 10 mM MgCl2, 0.01% BSA, 1 mM DTT and 1% DMSO with varying concentrations of compounds. Following 2 h incubation at RT, the AXL, TYRO3 and MER enzymatic reaction was stopped by transfer of 10 μl of reaction into 10 μl of detection mix (400 nM Streptavidin-XL665, 200-fold dilution TK Antibody-Cryptate and detection buffer, HTRF® KinEASE-TK kit, Cisbio) in a white 384-well microplate (Perkin Elmer, OptiPlate 384). After 1 h incubation at RT, the plate was put into a plate reader (Evision) to read at 665/620 nm (acceptor/donor) for HTRF. The value of the DMSO blank (MIN inhibition=100% activity) was used as a negative control. The positive control was established by adding 5 μl of enzyme and DMSO mixture into 10 μl of detection mix followed by addition of 5 μl of TK Substrate-biotin and ATP mixture (MAX inhibition=0% activity). To calculate the percent activity, Equation 1 was used. Ratio665/620 is the value at a given compound concentration: […]

p-AXL = target: T2, p-AXL (Homo sapiens, UniProt P30530); test: Axl phosphorylation inhibition ELISA in HEK293T cells transfected with NanoLuc-tagged AXL; assay type: cell-based; details: 1 h compound incubation, media (OptiMEM)
T2 construct: expressed in transfected cells; host or cells: HEK293T
T2 sequence (P30530 26-894): T1 sequence (P30530 26-894)
Protocol: [formula] Measurement of Axl Phosphorylation Inhibition
The dose-response assays were performed in S-Bio PrimeSurface® 3D culture: Ultra-low Attachment Plates: 384 well, U bottom (#MS-9384UZ) containing 400 nL of 22 serial 2-fold compound dilutions using Bravo and Echo. ELISA assay was performed on Pierce™ streptavidin coated high capacity 384-well white plates (Thermofisher Cat #15505). The plates were coated overnight at 4° C. with 50 μl/well of biotinlyated phospho-tyrosine mouse mAb (Cell Signaling Technology, 9417s).
HEK293T cells were grown in DMEM containing 10% FBS, 1% Pen/Strep, 1% G-Max. A day before the assay, cells were transiently transfected with 6.8 μg of NanoLuc-tagged AXL plasmid DNA and 8 μg of carrier DNA using FuGENE® HD Transfection Reagent (Promega) according to manufacturer's instructions. On the day of the assay, transfected cells were harvested and resuspended in OptiMEM. 70,000 cells/well were added to the compounds containing assay plates. After a gentle mix and a short spin, the plates were incubated at 37° C. After 1 h, the cells were lysed followed by a brief centrifugation and 30 min of shaking at 300 rpm. Meanwhile, the antibody coated plates were brought to room temperature and then were washed ten times in PBS with 0.05% Tween 20 (ELISA-wash buffer). 50 μl/well of cell lysate was transferred to the ELISA plates and shaken for 2 hours. After washing again with the ELISA wash buffer, the samples were diluted with 25 μl of PBS. The captured NanoLuc tagged p-AXL was detected using Nano-Glo® Luciferase Assay System (Promega) and manufacturer's instruction. The luminescence signal was measured using Envision plate reader. IC50 values were determined by fitting the data to a standard 4-parameter logistic equation.

SMILES | IC50 (Axl) | IC50 (p-AXL)
Cc1cnc(-c2ccc(-c3n[nH]c4ncc(-c5ccc6c(c5)CC[C@@H](N5C7COCC5C7)CC6)cc34)cc2)c(C)n1 [Example 190, 6-[(7S)-2-{3-[4-(3,5-Dimethylpyrazin-2-yl)phenyl]-1H-pyrazolo[3,4-b]pyridin-5-yl}-6,7,8,9-tetrahydro-5H-benzo[7]annulen-7-yl]-3-oxa-6-azabicyclo[3.1.1]heptane] | < 100 nM | 100 to 1000 nM
Cn1ncnc1-c1ccc(-c2n[nH]c3ncc(-c4ccc5c(c4)CC[C@@H](N4C[C@@H]6C[C@H]4CO6)CC5)cc23)cc1 [Example 135, (1S,4S)-5-[(7S)-2-{3-[4-(1-Methyl-1H-1,2,4-triazol-5-yl)phenyl]-1H-pyrazolo[3,4-b]pyridin-5-yl}-6,7,8,9-tetrahydro-5H-benzo[7]annulen-7-yl]-2-oxa-5-azabicyclo[2.2.1]heptane] | < 100 nM | < 100 nM
c1cnc(-c2ccc(-c3n[nH]c4ncc(-c5ccc6c(c5)CC[C@@H](N5C7COCC5C7)CC6)cc34)cc2)c(C2CCOCC2)c1 [Example 149, 6-[(7S)-2-(3-{4-[3-(Oxan-4-yl)pyridin-2-yl]phenyl}-1H-pyrazolo[3,4-b]pyridin-5-yl)-6,7,8,9-tetrahydro-5H-benzo[7]annulen-7-yl]-3-oxa-6-azabicyclo[3.1.1]heptane] | < 100 nM | < 100 nM
Cc1cccnc1-c1ccc(-c2n[nH]c3ncc(-c4ccc5c(c4)CC[C@@H](N[C@H]4CCCOC4)CC5)cc23)nc1 [Example 106, (3S)—N-[(7S)-2-(3-{3-Methyl-[2,3′-bipyridin]-6′-yl}-1H-pyrazolo[3,4-b]pyridin-5-yl)-6,7,8,9-tetrahydro-5H-benzo[7]annulen-7-yl]oxan-3-amine] | < 100 nM | < 100 nM
Cc1cc(C)c(-c2ccc(-c3c[nH]c4ncc(-c5ccc6c(c5)CC[C@@H](N5C7COCC5C7)CC6)cc34)cc2)cn1 [Example 196, 6-[(7S)-2-{3-[4-(4,6-Dimethylpyridin-3-yl)phenyl]-1H-pyrrolo[2,3-b]pyridin-5-yl}-6,7,8,9-tetrahydro-5H-benzo[7]annulen-7-yl]-3-oxa-6-azabicyclo[3.1.1]heptane] | < 100 nM | 100 to 1000 nM
c1cc2c(c(-c3ccc(-c4c[nH]c5ncc(-c6ccc7c(c6)CC[C@@H](N6C8COCC6C8)CC7)cc45)cc3)n1)OCCO2 [Example 194, 6-[(7S)-2-[3-(4-{2H,3H-[1,4]Dioxino[2,3-c]pyridin-5-yl}phenyl)-1H-pyrrolo[2,3-b]pyridin-5-yl]-6,7,8,9-tetrahydro-5H-benzo[7]annulen-7-yl]-3-oxa-6-azabicyclo[3.1.1]heptane] | < 100 nM | < 100 nM
Cc1cccnc1-c1ccc(-c2n[nH]c3ncc(-c4ccc5c(c4)CC(N4CCCC4)CC5)cc23)cc1 (stereo not shown) [Example 67, 3-Methyl-2-(4-{5-[7-(pyrrolidin-1-yl)-5,6,7,8-tetrahydronaphthalen-2-yl]-1H-pyrazolo[3,4-b]pyridin-3-yl}phenyl)pyridine] | < 100 nM | 100 to 1000 nM
Cc1ccc(-c2ccc(-c3c[nH]c4ncc(-c5ccc6c(c5)CC[C@@H](N5C7COCC5C7)CC6)cc34)cc2)c(C)n1 [Example 73, 6-[(7S)-2-{3-[4-(2,6-Dimethylpyridin-3-yl)phenyl]-1H-pyrrolo[2,3-b]pyridin-5-yl}-6,7,8,9-tetrahydro-5H-benzo[7]annulen-7-yl]-3-oxa-6-azabicyclo[3.1.1]heptane] | < 100 nM | 100 to 1000 nM
Cc1ccc[n+]([O-])c1-c1ccc(-c2c[nH]c3ncc(-c4ccc5c(c4)CC[C@@H](N4C6COCC4C6)CC5)cc23)cc1 [Example 16, 3-Methyl-2-(4-{5-[(7S)-7-{3-oxa-6-azabicyclo[3.1.1]heptan-6-yl}-6,7,8,9-tetrahydro-5H-benzo[7]annulen-2-yl]-1H-pyrrolo[2,3-b]pyridin-3-yl}phenyl)pyridin-1-ium-1-olate] | < 100 nM | < 100 nM

Second part, the molecule after the results:

IC50 (Axl) | IC50 (p-AXL) | SMILES
< 100 nM | 100 to 1000 nM | Cc1ccc(C(F)(F)F)nc1-c1ccc(-c2c[nH]c3ncc(-c4ccc5c(c4)CC[C@@H](N4C6COC[C@H]4C6)CC5)cc23)cc1 [Example 146, (1R)-6-[(7S)-2-(3-{4-[3-Methyl-6-(trifluoromethyl)pyridin-2-yl]phenyl}-1H-pyrrolo[2,3-b]pyridin-5-yl)-6,7,8,9-tetrahydro-5H-benzo[7]annulen-7-yl]-3-oxa-6-azabicyclo[3.1.1]heptane]
< 100 nM | < 100 nM | Cn1ncnc1-c1ccc(-c2c[nH]c3ncc(-c4ccc5c(c4)CC[C@@H](N4C6COCC4C6)CC5)cc23)cc1 [Example 133, 6-[(7S)-2-{3-[4-(1-Methyl-1H-1,2,4-triazol-5-yl)phenyl]-1H-pyrrolo[2,3-b]pyridin-5-yl}-6,7,8,9-tetrahydro-5H-benzo[7]annulen-7-yl]-3-oxa-6-azabicyclo[3.1.1]heptane]
< 100 nM | < 100 nM | CO[C@H]1C[C@@H](N[C@H]2CCc3ccc(-c4cnc5[nH]nc(-c6ccc(-c7ncccc7C)cn6)c5c4)cc3CC2)C1 [Example 108, (7S)-2-(3-{3-Methyl-[2,3′-bipyridin]-6′-yl}-1H-pyrazolo[3,4-b]pyridin-5-yl)-N-[cis-3-methoxycyclobutyl]-6,7,8,9-tetrahydro-5H-benzo[7]annulen-7-amine]
< 100 nM | 100 to 1000 nM | Cc1ccc(C(C)(C)O)nc1-c1ccc(-c2c[nH]c3ncc(-c4ccc5c(c4)CC[C@@H](N4C6COCC4C6)CC5)cc23)cc1 [Example 8, 2-[5-Methyl-6-(4-{5-[(7S)-7-{3-oxa-6-azabicyclo[3.1.1]heptan-6-yl}-6,7,8,9-tetrahydro-5H-benzo[7]annulen-2-yl]-1H-pyrrolo[2,3-b]pyridin-3-yl}phenyl)pyridin-2-yl]propan-2-ol]
< 100 nM | < 100 nM | Cc1ccc(C(N)=O)nc1-c1ccc(-c2c[nH]c3ncc(-c4ccc5c(c4)CC[C@@H](N4C6COCC4C6)CC5)cc23)cc1 [Example 76, 5-Methyl-6-(4-{5-[(7S)-7-{3-oxa-6-azabicyclo[3.1.1]heptan-6-yl}-6,7,8,9-tetrahydro-5H-benzo[7]annulen-2-yl]-1H-pyrrolo[2,3-b]pyridin-3-yl}phenyl)pyridine-2-carboxamide]
